Test results: patent publication US9067949B2, “Benzofuro[3,2-c] pyridines and related analogs as serotonin sub-type 6 (5-HT6) modulators for the treatment of obesity, metabolic syndrome, cognition and schizophrenia” (Albany Molecular Research, Inc., priority 2011, dated 2015)
Like-named read-outs stand apart in the source and are kept apart here.

Tests used:
[1] = biological target: human 5-HT6 receptor (Homo sapiens (Human), UniProt P50406); test: 5-HT6 radioligand binding assay (SPA format, [N-methyl-3H]-LSD)
human 5-HT6 receptor, sequence (P50406 whole entry): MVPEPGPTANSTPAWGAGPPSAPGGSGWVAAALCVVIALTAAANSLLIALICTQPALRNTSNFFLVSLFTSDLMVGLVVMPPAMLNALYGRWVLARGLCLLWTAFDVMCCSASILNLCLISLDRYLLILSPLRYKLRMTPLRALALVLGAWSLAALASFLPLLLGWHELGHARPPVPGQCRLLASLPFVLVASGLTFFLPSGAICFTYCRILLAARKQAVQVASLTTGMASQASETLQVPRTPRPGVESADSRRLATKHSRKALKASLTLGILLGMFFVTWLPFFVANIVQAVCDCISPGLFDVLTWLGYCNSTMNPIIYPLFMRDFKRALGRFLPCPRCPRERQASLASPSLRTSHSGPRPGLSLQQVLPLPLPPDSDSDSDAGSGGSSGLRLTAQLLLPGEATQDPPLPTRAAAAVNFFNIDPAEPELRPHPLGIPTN
Method: The relative affinities of the various compounds for the 5-HT6 receptor were measured in a radioligand binding assay, using a scintillation proximity assay (SPA) format.
For binding analysis vs. the human receptor, samples were incubated in 50 mM Tris-HCl, pH 7.5, 5 mM MgCl2, 1 mM EDTA (4% DMSO final) with 10 nM [N-methyl-^3H]-LSD (Perkin Elmer), 2.5 ng of human 5-HT6 receptor membranes (Millipore) and 50 μg SPA beads (PVT-PEI-WGA, GE Healthcare) per well in a final volume of 0.2 mL. […] Binding reactions were performed in PicoPlate96 microtiter plates (Perkin Elmer) by consecutively adding 50 μL of each competing compound or buffer, SPA beads, radioligand and 5-HT6 receptor membranes. After an overnight incubation at room temperature on a Nutator mixer, plates were centrifuged for 15 min at 1,500 rpm, followed by incubation in the dark for 10 min. […] Total binding control contained compound dilution buffer only; nonspecific binding is determined in the presence of 100 μM 5-hydroxytryptamine. Specific binding was determined by subtracting nonspecific binding from total binding.
All experiments were performed in duplicate using ten concentrations of competing ligand, with clozapine included as a control in every run. IC50 values were determined from specific binding data using XLfit4.1 curve fitting software from IDBS Ltd. The inhibition constant (Ki) was calculated using the Cheng-Prusoff equation: (Ki=IC50/(1+(L/KD)), where L=concentration of radioligand in the assay, and KD=affinity of the radioligand for the receptor.

[2] = human 5-HT6 receptor membranes, 10 nM [N-methyl-3H]-LSD, Ki by Cheng-Prusoff, hydrochloride, read-out: human 5HT6 Ki
[3] = human 5-HT6 receptor membranes, 10 nM [N-methyl-3H]-LSD, Ki by Cheng-Prusoff, read-out: human 5HT6 Ki

SMILES	Ki [1, 3]	also measured
CC1NCCc2oc3c(Cl)cc(S(=O)(=O)c4ccccc4)cc3c21.Cl (single isomer, unassigned; (+)) [Example 82a, (+)-6-chloro-1-methyl-8-(phenylsulfonyl)-1,2,3,4-tetrahydrobenzofuro[3,2-c]pyridine hydrochloride]	–	Ki [1, 2]: 56 nM; melting point: 295 °C (dec.)
O=S(=O)(c1ccccc1)c1cc(Cl)c2oc3c(c2c1)CC(O)CC3 (single isomer, unassigned; (+)) [Example 99, (+)-6-chloro-8-(phenylsulfonyl)-1,2,3,4-tetrahydrodibenzo[b,d]furan-2-ol]	1 nM	melting point: 238 to 242 °C
CC1Cc2oc3c(Cl)cc(S(=O)(=O)c4ccccc4)cc3c2CN1.Cl (single isomer, unassigned; (-)) [Example 83a, (−) 6-chloro-3-methyl-8-(phenylsulfonyl)-1,2,3,4-tetrahydrobenzofuro[3,2-c]pyridine hydrochloride]	–	Ki [1, 2]: 25 nM; melting point: 293 °C (dec.)
O=S(=O)(c1ccccc1)c1cc(Cl)c2oc3c(c2c1)CC(O)CC3 (single isomer, unassigned; (-)) [Example 98, (−)-6-chloro-8-(phenylsulfonyl)-1,2,3,4-tetrahydrodibenzo[b,d]furan-2-ol]	46 nM	melting point: 236 to 240 °C
CN1CCc2oc3ccc(S(=O)(=O)c4ccccc4)cc3c2C1.Cl [Example 27, 2-Methyl-8-(phenylsulfonyl)-1,2,3,4-tetrahydrobenzofuro[3,2c]pyridine hydrochloride]	6.5 nM	melting point: 272 °C
Cl.O=S(=O)(c1ccccc1)c1ccc2oc3c(c2c1)CNCC3 [Example 28, 8-(Phenylsulfonyl)-1,2,3,4-tetrahydrobenzofuro[3,2-c]pyridine hydrochloride]	19 nM	melting point: 243 °C
Cl.O=S(=O)(c1cccc(F)c1)c1ccc2oc3c(c2c1)CNCC3 [Example 29, 8-(3-Fluorophenylsulfonyl)-1,2,3,4-tetrahydrobenzofuro[3,2-c]pyridine hydrochloride]	16 nM	melting point: 262 to 272 °C (dec.)
Cl.O=S(=O)(c1cccc(Cl)c1)c1ccc2oc3c(c2c1)CNCC3 [Example 30, 8-(3-Chlorophenylsulfonyl)-1,2,3,4-tetrahydrobenzofuro[3,2-c]pyridine hydrochloride]	6.2 nM	melting point: 245 to 252 °C (dec.)
Cl.O=S(=O)(c1ccc(F)cc1)c1ccc2oc3c(c2c1)CNCC3 [Example 31, 8-(4-Fluorophenylsulfonyl)-1,2,3,4-tetrahydrobenzofuro[3,2-c]pyridine hydrochloride]	43 nM	melting point: 270 to 280 °C
Cl.O=S(=O)(c1ccc(Cl)cc1)c1ccc2oc3c(c2c1)CNCC3 [Example 32, 8-(4-Chlorophenylsulfonyl)-1,2,3,4-tetrahydrobenzofuro[3,2-c]pyridine hydrochloride]	38 nM	melting point: 302 to 305 °C
COc1ccc(S(=O)(=O)c2ccc3oc4c(c3c2)CNCC4)cc1.Cl [Example 33, 8-(4-Methoxyphenylsulfonyl)-1,2,3,4-tetrahydrobenzofuro[3,2-c]pyridine hydrochloride]	100 nM	melting point: 270 to 272 °C
Cl.N#Cc1ccc(S(=O)(=O)c2ccc3oc4c(c3c2)CNCC4)cc1 [Example 34, 8-(4-Cyanophenylsulfonyl)-1,2,3,4-tetrahydrobenzofuro[3,2-c]pyridine hydrochloride]	–	Ki [1]: 1320 nM; melting point: 295 to 301 °C (dec.)
Cc1ccc(S(=O)(=O)c2ccc3oc4c(c3c2)CNCC4)cc1.Cl [Example 35, 8-(4-Methylphenylsulfonyl)-1,2,3,4-tetrahydrobenzofuro[3,2-c]pyridine hydrochloride]	38 nM	melting point: 265 to 270 °C
Cl.Nc1ccc(S(=O)(=O)c2ccc3oc4c(c3c2)CNCC4)cc1 [Example 36, 8-(4-Aminophenylsulfonyl)-1,2,3,4-tetrahydrobenzofuro[3,2-c]pyridine hydrochloride]	40 nM	melting point: 305 to 314 °C (dec.)
Cc1cc(S(=O)(=O)c2cc(F)cc(F)c2)cc2c3c(oc12)CCNC3 [Example 197]	1.3 nM	–
Cc1cc(S(=O)(=O)c2cc(Cl)cc(Cl)c2)cc2c3c(oc12)CCNC3 [Example 198]	1.2 nM	–
Cc1cc(S(=O)(=O)c2ccc(F)c(F)c2)cc2c3c(oc12)CCNC3 [Example 199]	2 nM	–
Cc1cc(S(=O)(=O)c2cccc(F)c2)cc2c3c(oc12)CCNC3 [Example 200]	0.5 nM	–
Cc1cc(S(=O)(=O)c2cccc(C(F)(F)F)c2)cc2c3c(oc12)CCNC3 [Example 201]	0.22 nM	–

SMILES	Ki [1, 3]	also measured
Cc1cc(S(=O)(=O)c2cccc(OC(F)F)c2)cc2c3c(oc12)CCNC3 [Example 202]	0.3 nM	–
Cc1cc(S(=O)(=O)c2ccc(F)cc2)cc2c3c(oc12)CCNC3 [Example 203]	1.5 nM	–
Cc1cc(S(=O)(=O)c2ccc3sccc3c2)cc2c3c(oc12)CCNC3 [Example 204]	0.23 nM	–
O=S(=O)(c1ccccc1)c1cc(C(F)(F)F)c2oc3c(c2c1)CNCC3 [Example 205]	2.1 nM	–
O=S(=O)(c1cccc(C(F)(F)F)c1)c1cc(F)c2oc3c(c2c1)CNCC3 [Example 206]	5.9 nM	–
O=S(=O)(c1ccc(F)cc1)c1cc(F)c2oc3c(c2c1)CNCC3 [Example 207]	44 nM	–
N#Cc1cc(S(=O)(=O)c2cc(F)cc(F)c2)cc2c3c(oc12)CCNC3 [Example 208]	50 nM	–
N#Cc1cc(S(=O)(=O)c2ccc(F)cc2)cc2c3c(oc12)CCNC3 [Example 209]	18 nM	–
N#Cc1cc(S(=O)(=O)c2ccccc2)cc2c3c(oc12)CCNC3 [Example 210]	4.2 nM	–
Cn1cc(S(=O)(=O)c2cc(C#N)c3oc4c(c3c2)CNCC4)c2ccccc21 [Example 211]	0.4 nM	–
N#Cc1cc(S(=O)(=O)c2ccc(Cl)cc2)cc2c3c(oc12)CCNC3 [Example 212]	8.8 nM	–
N#Cc1cc(S(=O)(=O)c2cccc(Cl)c2)cc2c3c(oc12)CCNC3 [Example 213]	1.9 nM	–
O=S(=O)(c1ccccc1)c1cc(OC(F)(F)F)c2oc3c(c2c1)CNCC3 [Example 214]	0.88 nM	–
CCOc1cc(S(=O)(=O)c2ccccc2)cc2c3c(oc12)CCNC3 [Example 215]	0.11 nM	–
O=S(=O)(c1ccccc1)c1cc(OC(F)F)c2oc3c(c2c1)CNCC3 [Example 216]	0.33 nM	–
O=S(=O)(c1ccccc1)c1cc(OCCO)c2oc3c(c2c1)CNCC3 [Example 217]	1.6 nM	–
CC(C)(O)COc1cc(S(=O)(=O)c2ccccc2)cc2c3c(oc12)CCNC3 [Example 218]	507 nM	–
CC(C)(O)c1cc(S(=O)(=O)c2ccccc2)cc2c3c(oc12)CCNC3 [Example 220]	55 nM	–
CC(O)c1cc(S(=O)(=O)c2ccccc2)cc2c3c(oc12)CCNC3 (stereo not shown) [Example 221]	5.7 nM	–

SMILES	Ki [1, 3]	also measured
NC(=O)c1cc(S(=O)(=O)c2ccccc2)cc2c3c(oc12)CCNC3 [Example 222]	307 nM	–
CN(C)C(=O)c1cc(S(=O)(=O)c2ccccc2)cc2c3c(oc12)CCNC3 [Example 223]	1110 nM	–
O=S(=O)(c1ccccc1)c1cc(-c2cc[nH]n2)c2oc3c(c2c1)CNCC3 [Example 224]	4.5 nM	–
Cn1cc(-c2cc(S(=O)(=O)c3ccccc3)cc3c4c(oc23)CCNC4)cn1 [Example 225]	11 nM	–
O=S(=O)(c1ccccc1)c1cc(-n2cncn2)c2oc3c(c2c1)CNCC3 [Example 226]	106 nM	–
Cn1ccc(-c2cc(S(=O)(=O)c3ccccc3)cc3c4c(oc23)CCNC4)n1 [Example 227]	60 nM	–
O=S(=O)(c1ccccc1)c1cc(N2CCOCC2)c2oc3c(c2c1)CNCC3 [Example 228]	47 nM	–
O=S(=O)(c1ccccc1)c1cc(Cn2ccnc2)c2oc3c(c2c1)CNCC3 [Example 229]	64 nM	–
COc1cc(Sc2ccccc2)cc2c3c(oc12)CCNC3 [Example 230]	1.9 nM	–
[O-][S+](c1ccccc1)c1cc(Cl)c2oc3c(c2c1)CNCC3 (stereo not shown) [Example 231]	3.1 nM	–
[O-][S+](c1ccccc1)c1cc(Cl)c2oc3c(c2c1)CNCC3 (stereo not shown) [Example 232]	29 nM	–
COc1cc([S+]([O-])c2ccccc2)cc2c3c(oc12)CCNC3 (stereo not shown) [Example 233]	2.4 nM	–
COc1cc([S+]([O-])c2ccccc2)cc2c3c(oc12)CCNC3 (stereo not shown) [Example 234]	7.4 nM	–
COc1cc([S+]([O-])c2ccccc2)cc2c3c(oc12)CCNC3 (stereo not shown) [Example 235]	1.1 nM	–
Clc1cc(Cc2ccccc2)cc2c3c(oc12)CCNC3 [Example 236]	24 nM	–
COc1cc(Oc2ccccc2)cc2c3c(oc12)CCNC3 [Example 237]	645 nM	–
COc1cc(S(=O)(=O)c2ccccc2)cc2c3c(oc12)CCC(O)C3 (stereo not shown) [Example 238]	0.59 nM	–
CC(=O)N1CCc2oc3c(Cl)cc(S(=O)(=O)c4ccccc4)cc3c2C1 [Example 239]	9.5 nM	–
